Reference: patent US20220387608A1, “ADRENOMEDULLIN-ANALOGUES FOR LONG-TERM STABILIZATION AND THEIR USE” (Bayer Aktiengesellschaft, priority 2019, published 2022)
Positions of bridges follow the written chain, without caps; N, C: chain ends. Non-standard residues stand in square brackets, D forms with d. Residues, ends and D or L forms follow the SMILES beside them. *: point of attachment. X1 = CN(C)c1ccc2c(c1)Oc1cc(N(C)C)ccc1C21OC(=O)c2ccc(C(=O)*)cc21; C18 diacid = O=C(O)CCCCCCCCCCCCCCCCC(=O)*; PEG3 = NCCOCCOCCOCCC(=O)O; Dap = NC[C@H](N)C(=O)O

Assay: Stability determination of TAMRA-labelled adrenomedullin analogues in human blood plasma
Format: in vitro ADME
Conditions: 37° C., 10^-5 M, slow-decay phase half-life, read-out: t1/2 (slow) (converted)
Procedure: The stability of the peptides was investigated using fluorescently labeled analogues, which were prepared as described above.
The TAMRA-labeled analogues were dissolved in 1.5 m1 of human blood plasma to a concentration of 10^−5 M and incubated at 37° C. under constant shaking. Samples of 150 μl were taken at different time points and precipitated with 300 μl Ethanol/ACN (1:1) for at least 1 h at −20° C. After centrifugation for 30 s at 12000 rpm, the supernatant was collected and incubated at −20° C. for at least 3 h. Subsequently, it was transferred into Costar® Spin-X® Centrifuge Tube Filters (0.22 μm) and centrifuged for 1 h at 12000 rpm. The samples were analyzed by RP-HPLC using a VariTide RPC column (Agilent Technologies, 250 mm×4.6 mm, […], 200 Å) with linear gradients of 0.1% TFA in water and 0.08% TFA in ACN; fluorescence measurement (λex=525 nm; λem=572 nm) was used for the detection of the analogues and their N-terminal fragments. The percentage of intact peptide was determined by peak integration. The values of peaks containing additional cleavage fragments were corrected by comparing intensities of cleavage fragments and intact peptide using MALDI-MS analysis (UltraflexIII, Bruker). The stability of the peptides was calculated with GraphPad Prism 5 (GraphPad Software) using a two phase exponential decay function for the determination of slow-decay phase half-lives (ln(2)/Kslow; Kslow: rate constant of slow part of exponential decay).

| Compound | half-life |
| --- | --- |
| CC[C@H](C)[C@H](NC(=O)[C@H](CCC(N)=O)NC(=O)[C@H](Cc1c[nH]cn1)NC(=O)[C@H](C)NC(=O)[C@H](CC(C)C)NC(=O)[C@H](CCCCN)NC(=O)[C@H](CCC(N)=O)NC(=O)[C@@H](NC(=O)[C@@H](NC(=O)[C@@H]1CSSC[C@H](NC(=O)CNC(=O)[C@H](CCCCNC(=O)CCCCCCCCCCCCCCCCC(=O)O)NC(=O)c2ccc3c(c2)C2(OC3=O)c3ccc(N(C)C)cc3Oc3cc(N(C)C)ccc32)C(=O)N[C@@H](CCCNC(=N)N)C(=O)N[C@@H](Cc2ccccc2)C(=O)NCC(=O)N[C@@H]([C@@H](C)O)C(=O)N1)[C@@H](C)O)C(C)C)C(=O)N[C@@H](Cc1ccc(O)cc1)C(=O)N[C@@H](CCC(N)=O)C(=O)N[C@@H](Cc1ccccc1)C(=O)N[C@H](C(=O)N[C@@H](CC(=O)O)C(=O)N[C@@H](CCCCN)C(=O)N[C@@H](CC(=O)O)C(=O)N[C@@H](CCCCN)C(=O)N[C@@H](CC(=O)O)C(=O)N[C@@H](CC(N)=O)C(=O)N[C@H](C(=O)N[C@@H](C)C(=O)N1CCC[C@H]1C(=O)N[C@@H](CCCNC(=N)N)C(=O)N[C@@H](CO)C(=O)N[C@@H](CCCCN)C(=O)N[C@H](C(=O)N[C@@H](CO)C(=O)N1CCC[C@H]1C(=O)N[C@@H](CCC(N)=O)C(=O)NCC(=O)N[C@@H](Cc1ccc(O)cc1)C(N)=O)[C@@H](C)CC)C(C)C)[C@@H](C)O [TAM-5] | 149 h |
| CC[C@H](C)[C@H](NC(=O)[C@H](CCC(N)=O)NC(=O)[C@H](Cc1c[nH]cn1)NC(=O)[C@H](C)NC(=O)[C@H](CC(C)C)NC(=O)[C@H](CCCCN)NC(=O)[C@H](CCC(N)=O)NC(=O)[C@@H](NC(=O)[C@@H](NC(=O)[C@@H]1CSSC[C@H](NC(=O)CNC(=O)[C@H](CCCCNC(=O)CCCCCCCCCCCCCCCCC(=O)O)NC(=O)c2ccc3c(c2)C2(OC3=O)c3ccc(N(C)C)cc3Oc3cc(N(C)C)ccc32)C(=O)N[C@@H](CCCNC(=N)N)C(=O)N[C@@H](Cc2ccccc2)C(=O)NCC(=O)N[C@@H]([C@@H](C)O)C(=O)N1)[C@@H](C)O)C(C)C)C(=O)N[C@@H](Cc1ccc(O)cc1)C(=O)N[C@@H](CCC(N)=O)C(=O)N[C@@H](Cc1ccccc1)C(=O)N[C@H](C(=O)NCCOCCOCCOCCC(=O)N[C@@H](CC(=O)O)C(=O)N[C@@H](CC(N)=O)C(=O)N[C@H](C(=O)N[C@@H](C)C(=O)N1CCC[C@H]1C(=O)N[C@H]1CCCCNC(=O)C[C@@H](C(=O)N2CCC[C@H]2C(=O)N[C@@H](CCC(N)=O)C(=O)NCC(=O)N[C@@H](Cc2ccc(O)cc2)C(N)=O)NC(=O)[C@H]([C@@H](C)CC)NC(=O)[C@H](CCCCN)NC(=O)[C@H](CO)NC1=O)C(C)C)[C@@H](C)O [TAM-14] (X1-K(C18 diacid)GCRFGTCTVQKLAHQIYQFT[PEG3]DNVAPKSKIDPQGY-NH2; disulfide 3-8; lactam 28-32) | > 144 h |
| CC[C@H](C)[C@H](NC(=O)[C@H](CCC(N)=O)NC(=O)[C@H](Cc1c[nH]cn1)NC(=O)[C@H](C)NC(=O)[C@H](CC(C)C)NC(=O)[C@H](CCCCN)NC(=O)[C@H](CCC(N)=O)NC(=O)[C@@H](NC(=O)[C@@H](NC(=O)[C@@H]1CCC(=O)NC[C@H](NC(=O)CNC(=O)[C@H](CCCCNC(=O)CCCCCCCCCCCCCCCCC(=O)O)NC(=O)c2ccc3c(c2)C2(OC3=O)c3ccc(N(C)C)cc3Oc3cc(N(C)C)ccc32)C(=O)N[C@@H](CCCNC(=N)N)C(=O)N[C@@H](Cc2ccccc2)C(=O)NCC(=O)N[C@@H]([C@@H](C)O)C(=O)N1)[C@@H](C)O)C(C)C)C(=O)N[C@@H](Cc1ccc(O)cc1)C(=O)N[C@@H](CCC(N)=O)C(=O)N[C@@H](Cc1ccccc1)C(=O)N[C@H](C(=O)N[C@@H](CC(=O)O)C(=O)N[C@@H](CCCCN)C(=O)N[C@@H](CC(=O)O)C(=O)N[C@@H](CCCCN)C(=O)N[C@@H](CC(=O)O)C(=O)N[C@@H](CC(N)=O)C(=O)N[C@H](C(=O)N[C@@H](C)C(=O)N1CCC[C@H]1C(=O)N[C@@H](CCCNC(=N)N)C(=O)N[C@@H](CO)C(=O)N[C@@H](CCCCN)C(=O)N[C@H](C(=O)N[C@@H](CO)C(=O)N1CCC[C@H]1C(=O)N[C@@H](CCC(N)=O)C(=O)NCC(=O)N[C@@H](Cc1ccc(O)cc1)C(N)=O)[C@@H](C)CC)C(C)C)[C@@H](C)O [TAM-15] (X1-K(C18 diacid)G[Dap]RFGTETVQKLAHQIYQFTDKDKDNVAPRSKISPQGY-NH2; lactam 3-8) | > 144 h |

Other lines, results leading:

| half-life | Compound |
| --- | --- |
| > 144 h | CC[C@H](C)[C@H](NC(=O)[C@H](CCC(N)=O)NC(=O)[C@H](Cc1c[nH]cn1)NC(=O)[C@H](C)NC(=O)[C@H](CC(C)C)NC(=O)[C@H](CCCCN)NC(=O)[C@H](CCC(N)=O)NC(=O)[C@@H](NC(=O)[C@@H](NC(=O)[C@@H]1CSSC[C@H](NC(=O)CNC(=O)[C@H](CCCCNC(=O)CCCCCCCCCCCCCCCCC(=O)O)NC(=O)c2ccc3c(c2)C2(OC3=O)c3ccc(N(C)C)cc3Oc3cc(N(C)C)ccc32)C(=O)N[C@@H](CCCNC(=N)N)C(=O)N[C@@H](Cc2ccccc2)C(=O)NCC(=O)N[C@@H]([C@@H](C)O)C(=O)N1)[C@@H](C)O)C(C)C)C(=O)N[C@@H](Cc1ccc(O)cc1)C(=O)N[C@@H](CCC(N)=O)C(=O)N[C@@H](Cc1ccccc1)C(=O)N[C@H](C(=O)N[C@@H](CC(=O)O)C(=O)N[C@@H](CCCCN)C(=O)N[C@@H](CC(=O)O)C(=O)N[C@@H](CCCCN)C(=O)N[C@@H](CC(=O)O)C(=O)N[C@@H](CC(N)=O)C(=O)N[C@H](C(=O)N[C@@H](C)C(=O)N1CCC[C@H]1C(=O)N[C@H]1CCCCNC(=O)C[C@@H](C(=O)N2CCC[C@H]2C(=O)N[C@@H](CCC(N)=O)C(=O)NCC(=O)N[C@@H](Cc2ccc(O)cc2)C(N)=O)NC(=O)[C@H]([C@@H](C)CC)NC(=O)[C@H](CCCCN)NC(=O)[C@H](CO)NC1=O)C(C)C)[C@@H](C)O [TAM-13] (X1-K(C18 diacid)GCRFGTCTVQKLAHQIYQFTDKDKDNVAPKSKIDPQGY-NH2; disulfide 3-8; lactam 31-35) |
| > 144 h | CC[C@H](C)[C@H](NC(=O)[C@H](CCC(N)=O)NC(=O)[C@H](Cc1c[nH]cn1)NC(=O)[C@H](C)NC(=O)[C@H](CC(C)C)NC(=O)[C@H](CCCCN)NC(=O)[C@H](CCC(N)=O)NC(=O)[C@@H](NC(=O)[C@@H](NC(=O)[C@@H]1CCC(=O)NC[C@H](NC(=O)CNC(=O)[C@H](CCCCNC(=O)CCCCCCCCCCCCCCCCC(=O)O)NC(=O)c2ccc3c(c2)C2(OC3=O)c3ccc(N(C)C)cc3Oc3cc(N(C)C)ccc32)C(=O)N[C@@H](CCCNC(=N)N)C(=O)N[C@@H](Cc2ccccc2)C(=O)NCC(=O)N[C@@H]([C@@H](C)O)C(=O)N1)[C@@H](C)O)C(C)C)C(=O)N[C@@H](Cc1ccc(O)cc1)C(=O)N[C@@H](CCC(N)=O)C(=O)N[C@@H](Cc1ccccc1)C(=O)N[C@H](C(=O)N[C@@H](CC(=O)O)C(=O)N[C@@H](CCCCN)C(=O)N[C@@H](CC(=O)O)C(=O)N[C@@H](CCCCN)C(=O)N[C@@H](CC(=O)O)C(=O)N[C@@H](CC(N)=O)C(=O)N[C@H](C(=O)N[C@@H](C)C(=O)N1CCC[C@H]1C(=O)N[C@H]1CCCCNC(=O)C[C@@H](C(=O)N2CCC[C@H]2C(=O)N[C@@H](CCC(N)=O)C(=O)NCC(=O)N[C@@H](Cc2ccc(O)cc2)C(N)=O)NC(=O)[C@H]([C@@H](C)CC)NC(=O)[C@H](CCCCN)NC(=O)[C@H](CO)NC1=O)C(C)C)[C@@H](C)O [TAM-16] (X1-K(C18 diacid)G[Dap]RFGTETVQKLAHQIYQFTDKDKDNVAPKSKIDPQGY-NH2; lactam 3-8, 31-35) |
| > 144 h | CC[C@H](C)[C@H](NC(=O)[C@H](CCC(N)=O)NC(=O)[C@H](Cc1c[nH]cn1)NC(=O)[C@H](C)NC(=O)[C@H](CC(C)C)NC(=O)[C@H](CCCCN)NC(=O)[C@H](CCC(N)=O)NC(=O)[C@@H](NC(=O)[C@@H](NC(=O)[C@@H]1CCC(=O)NC[C@H](NC(=O)CNC(=O)[C@H](CCCCNC(=O)CCCCCCCCCCCCCCCCC(=O)O)NC(=O)c2ccc3c(c2)C2(OC3=O)c3ccc(N(C)C)cc3Oc3cc(N(C)C)ccc32)C(=O)N[C@@H](CCCNC(=N)N)C(=O)N[C@@H](Cc2ccccc2)C(=O)NCC(=O)N[C@@H]([C@@H](C)O)C(=O)N1)[C@@H](C)O)C(C)C)C(=O)N[C@@H](Cc1ccc(O)cc1)C(=O)N[C@@H](CCC(N)=O)C(=O)N[C@@H](Cc1ccccc1)C(=O)N[C@H](C(=O)NCCOCCOCCOCCC(=O)N[C@@H](CC(=O)O)C(=O)N[C@@H](CC(N)=O)C(=O)N[C@H](C(=O)N[C@@H](C)C(=O)N1CCC[C@H]1C(=O)N[C@H]1CCCCNC(=O)C[C@@H](C(=O)N2CCC[C@H]2C(=O)N[C@@H](CCC(N)=O)C(=O)NCC(=O)N[C@@H](Cc2ccc(O)cc2)C(N)=O)NC(=O)[C@H]([C@@H](C)CC)NC(=O)[C@H](CCCCN)NC(=O)[C@H](CO)NC1=O)C(C)C)[C@@H](C)O [TAM-17] (X1-K(C18 diacid)G[Dap]RFGTETVQKLAHQIYQFT[PEG3]DNVAPKSKIDPQGY-NH2; lactam 3-8, 28-32) |
